Measurements taken from ChEMBL document CHEMBL4819030, “Microbial Transformation of Broussochalcones A and B by Aspergillus niger” (J Nat Prod, 2021).
Activity calls are given as the source filed them. No cut-off for these calls is given here.

Experiments:
Format in all cases: functional, cell-based
[1] = system: MCF7; experiment: Cytotoxicity against human MCF7 cells incubated for 24 hrs by MTT assay
[2] = system: A549; experiment: Cytotoxicity against human A549 cells incubated for 48 hrs by MTT assay
[3] = system: A375P; experiment: (§1) Cytotoxicity against human A375P cells incubated for 24 hrs by MTT assay
[4] = system: HepG2; experiment: Cytotoxicity against human HepG2 cells incubated for 48 hrs by MTT assay
[5] = system: HT-29; experiment: Cytotoxicity against human HT29 cells incubated for 24 hrs by MTT assay
[6] = as §1

Structure (SMILES): CC1(C)O[C@H]1Cc1cc(C(=O)/C=C/c2ccc(O)cc2)c(O)cc1O
- Activity [1]: inactive
- Activity [2]: inactive
- Activity [3]: inactive
- Activity [4]: inactive
- Activity [5]: inactive

Structure (SMILES): CC(C)(O)[C@H](O)Cc1cc(C(=O)/C=C/c2ccc(O)c(O)c2)c(O)cc1O
- Activity [1]: inactive
- Activity [2]: inactive
- Activity [3]: inactive
- Activity [4]: inactive
- Activity [5]: inactive

Structure (SMILES): CC1(C)O[C@@H]1Cc1cc(C(=O)CCc2ccc(O)cc2)c(O)cc1O
- Activity [1]: inactive
- Activity [2]: inactive
- Activity [3]: inactive
- Activity [4]: inactive
- Activity [5]: inactive

Structure (SMILES): CC1(C)O[C@H]1Cc1cc(C(=O)/C=C/c2ccc(O)c(O)c2)c(O)cc1O
- Activity [1]: inactive
- Activity [2]: inactive
- Activity [3]: inactive
- Activity [4]: inactive
- Activity [5]: inactive

Structure (SMILES): CC(C)(O)[C@@H](O)Cc1cc(C(=O)CCc2ccc(O)c(O)c2)c(O)cc1O
- Activity [1]: inactive
- Activity [2]: inactive
- Activity [3]: inactive
- Activity [4]: inactive
- Activity [5]: inactive

Structure (SMILES): CC1(C)O[C@@H]1Cc1cc(C(=O)CCc2ccc(O)c(O)c2)c(O)cc1O
- Activity [1]: inactive
- Activity [2]: inactive
- Activity [3]: inactive
- Activity [4]: inactive
- Activity [5]: inactive

Structure (SMILES): CC(C)(O)[C@H](O)Cc1cc(C(=O)/C=C/c2ccc(O)cc2)c(O)cc1O
- Activity [1]: inactive
- Activity [2]: inactive
- Activity [3]: inactive
- Activity [4]: inactive
- Activity [5]: inactive

Structure (SMILES): CC(C)(O)[C@@H](O)Cc1cc(C(=O)CCc2ccc(O)cc2)c(O)cc1O
- Activity [1]: inactive
- Activity [2]: inactive
- Activity [3]: inactive
- Activity [4]: inactive
- Activity [5]: inactive

Structure (SMILES): CC(C)=CCc1cc(C(=O)CCc2ccc(O)c(O)c2)c(O)cc1O
- IC50 ([1]; MCF7, 24 h): 3.8 µM
- IC50 ([2]; A549, 48 h): 3.8 µM
- IC50 [6]: 3.8 µM
- Activity [4]: inactive
- IC50 ([5]; HT-29, 24 h): 3.8 µM

Structure (SMILES): CC(C)(O)[C@H]1Cc2cc(C(=O)CCc3ccc(O)cc3)c(O)cc2O1
- Activity [1]: inactive
- Activity [2]: inactive
- Activity [3]: inactive
- Activity [4]: inactive
- Activity [5]: inactive
